Among the data in patent US20230331737A1, “MTORC1 MODULATORS AND USES THEREOF” (Aeovian Pharmaceuticals, Inc., priority 2020, published 2023) are IC50 and Kd values, retold here.

Bounds are passed on as bounds.

For one test, the target named is mTORC2 (Homo sapiens, UniProt P42345+P62942). Description: mTORC2 inhibition in PC3 cells, AlphaLISA of pAKT pS473 levels. (In general: In Alpha technology, singlet oxygen from a donor bead excites a nearby acceptor bead.)
Another test has as its target T1, mTORC1 (Homo sapiens, UniProt P42345+P62942).
T1 construct: endogenous in cells; host or cells: PC-3 cells
Put plainly: mTORC1 inhibition in PC-3 cells, AlphaLISA of p70S6K pT389 levels. It is filed as cell-based. The note with it: mTORC1 as measured by inhibition of p70S6K pT389 levels, read-out: mTROC1 IC50. Here is the method: mTORC1 inhibition was determined via analysis of phosphorylation levels of Phospho-p70 S6 kinase (p70S6K pT389) and Phospho-S6 Ribosomal Protein (pRPS6 pS240/pS244) with the corresponding AlphaLISA kits (PerkinElmer Alpha SF Ultra™ Multiplex phospho (Thr389)/total p70 S6K Assay Kit (Eu/Tb) and AlphaLISA SF Ultra™ p-Ribosomal Protein S6 (Ser240/244) Assay Kit).
%−activity=100*((Sample−Low control)/(High control−Low control))

Test [1] addresses FKBP12 ternary complex with FRB (Homo sapiens, UniProt P42345+P62942). Put plainly: SPR assay to characterize ternary complex formation with FKBP12 (FRB injected over compound-saturated FKBP12). It is filed as binding. The note with it: FRB dilutions with 100 nM test compound over immobilized FKBP12. For orientation: SPR reads the build-up and loss of mass on a sensor chip optically.

The target in a further test is FKBP12 (Homo sapiens, UniProt P62942). Put plainly: SPR assay to determine binding affinity to FKBP12 (direct binding). The note with it: immobilized biotinylated avi-FKBP12, single-cycle kinetics.
Sequence of FKBP12 (P62942 whole entry, species assumed): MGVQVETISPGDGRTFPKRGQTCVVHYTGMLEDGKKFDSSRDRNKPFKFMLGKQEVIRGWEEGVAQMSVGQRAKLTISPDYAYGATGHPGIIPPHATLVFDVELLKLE

Sequence of mTORC2 (P62942 2-108 limits assumed, other chains not shown): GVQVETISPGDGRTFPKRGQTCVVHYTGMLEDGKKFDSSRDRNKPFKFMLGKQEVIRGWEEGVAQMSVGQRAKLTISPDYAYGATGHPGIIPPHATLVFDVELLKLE

For `CO[C@H]1C[C@@H]2CC[C@@H](C)[C@@](O)(O2)C(=O)C(=O)N2CCCC[C@H]2C(=O)O[C@H]([C@H](C)C[C@@H]2CC[C@@H](OCCO)[C@H](OC)C2)CC(=O)[C@H](C)/C=C(\C)[C@@H](O)[C@@H](OC)C(=O)[C@H](C)C[C@H](C)/C=C/C=C/C=C/1C` [everolimus], the IC50 – broadly, the midpoint of a concentration-inhibition curve – against mTORC2 was less than 10 nM.

For `CO[C@@H]1C[C@H](C[C@@H](C)[C@@H]2CC(=O)[C@H](C)/C=C(\C)[C@@H](O)[C@@H](OC)C(=O)[C@H](C)C[C@H](C)/C=C/C=C/C=C(\C)[C@@H](OCCOCCO)C[C@@H]3CC[C@@H](C)[C@@](O)(O3)C(=O)C(=O)N3CCCC[C@H]3C(=O)O2)CC[C@H]1O` [Compound 524, (1R,9S,12S,15R,16E,18R,19R,21R,23S,24E,26E,28E,30S,32S,35R)-1,18-dihydroxy-30-[2-(2-hydroxyethoxy)ethoxy]-12-[(1R)-2-[(1S,3R,4R)-4-hydroxy-3-methoxy-cyclohexyl]-1-methyl-ethyl]-19-methoxy-15,17,21,23,29,35-hexamethyl-11,36-dioxa-4-azatricyclo[30.3.1.04,9]hexatriaconta-16,24,26,28-tetraene-2,3,10,14,20-pentone], the half-inhibitory concentration (IC50) at mTORC1 was less than 0.8 nM. The Kd (in general, the concentration at which binding is half-saturated) in test [1] was 500 to 1100 nM; on FKBP12, less than 0.3 nM.

Take `CO[C@@H]1C[C@H](C[C@@H](C)[C@@H]2CC(=O)[C@H](C)/C=C(\C)[C@@H](O)[C@@H](OC)C(=O)[C@H](C)C[C@H](C)/C=C/C=C/C=C(\C)[C@@H](OCC3COC3)C[C@@H]3CC[C@@H](C)[C@@](O)(O3)C(=O)C(=O)N3CCCC[C@H]3C(=O)O2)CC[C@H]1OCCO` [Compound 474, (1R,9S,12S,15R,16E,18R,19R,21R,23S,24E,26E,28E,30S,32S,35R)-1,18-dihydroxy-12-[(1R)-2-[(1S,3R,4R)-4-(2-hydroxyethoxy)-3-methoxy-cyclohexyl]-1-methyl-ethyl]-19-methoxy-15,17,21,23,29,35-hexamethyl-30-(oxetan-3-ylmethoxy)-11,36-dioxa-4-azatricyclo[30.3.1.04,9]hexatriaconta-16,24,26,28-tetraene-2,3,10,14,20-pentone]: the concentration for half-maximal inhibition (IC50) at mTORC1 is less than 0.8 nM. Further, the Kd in test [1] was in the range of 500 to 1100 nM; at FKBP12, 0.3 to 1 nM.
